How the values were obtained:
[1] = system: OriP; test: OriP plasmid maintenance in cells; type: cell-based, Epstein-Barr virus; conditions: for OriP maintenance, dependence on nonamer binding sites: D98/HR1 cells transfected with OriP wt or OriPΔa,b,c, 3 weeks after sorting, Southern analysis of Hirt lysates; for plasmid maintenance of OriP: FIG. 4 and FIG. 5C
Excerpt: A green fluorescent protein (GFP) reporter gene is inserted into the polylinker site of plasmid pREP10 (Invitrogen), which contains the EBV oriP and EBNA-1 under the control of its weak, naturally-occurring viral promoter. The GFP reporter gene allows for rapid flow cytometric (FACS) analysis to determine the percent of cells carrying the DNA vector. FACS is also used to cell sort, i.e., to obtain a homogeneous population of cells all expressing GFP and therefore carrying the vector.
The recombinant episomal plasmid GFP-REP10 is transfected into recipient mammalian or avian host cells and cells are sorted after 48 hours to obtain a homogeneous population (100%) expressing the GFP label. Test compounds, individually or in combination, or controls are applied to samples of the culture medium to test for the effect on GFP positive cells. Cells treated with test compounds, or with positive and/or negative controls, are assayed for the rate of loss of GFP over several days to weeks. These rates of loss are compared for each test compound with the relevant controls to determine novel test compounds that enhance or decrease episomal maintenance in the cell.
Confirmation of episomal DNA is determined at the experimental endpoint of between 3 to 5 weeks, using the HIRT extraction and Southern blotting procedure, described in e.g., Yates et al, 2000, J. Virol. 74, 4512-4522.
In one study, D98/HR1 cells were transfected with OriP wt or OriPΔa,b,c, GFP-selected by FACS, and cultured in the presence of niacinamide (PARP inhibitor), hydroxyurea (PARP stimulator), or 3-AB (PARP inhibitor). OriP maintenance was assayed 3 weeks after sorting by Southern analysis of Hirt lysates.

[2] = system: EBV genome; test: Stability of the EBV genome in cells; type: cell-based, Epstein-Barr virus; conditions: FIG. 5A and FIG. 5B
[3] = system: episomal plasmids; test: Transient replication of episomal plasmids; type: cell-based
[4] = system: TRF1; test: ChIP assay of TRF1 association with OriP in D98/HR1 cells; type: cell-based; conditions: treated D98/HR1 cells
Experimental: (§1) To determine if telomere associated proteins EBNA1, TRF2 and Tankyrase associate with EBV oriP episomes in naturally infected cell lines, the chromatin immunoprecipitation) (CHIP) assay was used with EBV positive RAJI Burkitt lymphoma cell lines that contain ˜5-25 copies of episomal EBV. Chromatin immunoprecipitation was performed as described in Galande, S. & Kohwi-Shigematsu, 1999 J. Biol. Chem. 274, 20521-20528.
(§2) Briefly, asynchronous RAJI cells were cross-linked with formaldehyde, sonicated to generate chromatin DNA fragments of 400 bp average size, and then immunoprecipitation with various antibodies to FLAG-M2 (Sigma), EBNA1, Tankyrase, or TRF2. DNA fragments isolated from immunoprecipitation protein-DNA complexes (three-fold dilutions for each set of antibodies) were then amplified for 24 cycles by PCR with primer pairs specific for the DS region of EBV oriP (corresponding to EBV nucleotides 8586-9206, nucleotides 1-621 SEQ ID NO: 1), or for control EBV sequences surrounding the BRLF1 promoters (nucleotides 106,094-106,420, nucleotides 1-317 SEQ ID NO: 2), over 90 kb away from oriP and unlikely to share OriP binding proteins.
(§3) EBNA1, hRap1,and TRF1 association with OriP were determined by ChIP assay in cells that were treated with hydroxyurea or niacinamide. […]

[5] = system: histone H3; test: OriP-associated histone modification by ChIP assay in Akata cells; type: cell-based
Experimental: Akata cells were cultured without treatment, with H2O2, hydroxyurea (HU) or niacinamide as indicated above each lane. OriP-associated histone modification was measured by ChIP assay with antibodies specific for Flag, Acetylated H3, acetylated H4, or S10 phosphorylated H3.

[6] = system: EBNA1; test: DS DNA affinity chromatography in the presence or absence of NAD; type: binding, Epstein-Barr virus; conditions: 1 mM NAD
Experimental: To identify cellular proteins that mediate EBNA1 functions at OriP, a stable HeLa cell derivative (SL1) was established expressing epitope tagged EBNA1 (HA-EBNA1) and episomal OriP. SL1 cells were generated by retroviral transformation of HeLa S3 cells with HA-EBNA1 lacking Gly-Ala repeats (Δ102-325). HeLa and SL1 cell nuclear extracts were prepared by the method of Dignam, J. D. et al, 1983 Nucl. Acids Res. 11, 1475-1489. Nuclear pellets were solubilized by sonication in RIPA buffer (1% Triton×100, 0.1% sodium deoxycholate, 140 mM NaCl, 50 mM Hepes (pH 7.5), 1 mM EDTA, 1 mM DTT, and protease inhibitors-1 mM PMSF, 1 mM benzamidine, 10 μg/ml aprotinin, 20 μg/ml leupeptine, 1 μg/ml pepstatin, 25 μg/ml TLCK and 50 μg/ml TPCK). Sonicated nuclear pellets were clarified by centrifugation at 39,000×g for 30 minutes. This solubilized nuclear pellets were combined with nuclear extract (1:1) made 6 mM MgCl2, and preincubated with 400 μg/ml sonicated herring sperm DNA for 30 minutes. Biotinylated PCR fragments were coupled to streptavidin conjugated magnetic bead (Dynal) and then incubated nuclear extracts for 45 minutes at 25° C. The bound material was washed 4 times in D150 buffer (20 mM HEPES, pH7.9, 20% glycerol, 0.2 mM EDTA, 150 mM KCl, 1 mM DTT, 1 mM PMSF) and then eluted with D1000 (same as above except 1000 mM KCl). […]

[7] = system: EBNA1; test: ChIP assay of EBNA1 association with OriP in D98/HR1 cells; type: cell-based, Epstein-Barr virus; conditions: treated D98/HR1 cells
Experimental: as §1, §2, §3

[8] = system: hRap1; test: ChIP assay of hRap1 association with OriP in D98/HR1 cells; type: cell-based, human; conditions: treated D98/HR1 cells
[9] = system: EBNA1; test: EBNA1 binding to DS in Akata cells; type: cell-based, Epstein-Barr virus; conditions: preliminary results
Experimental: (§4) EBNA1 and MCM3 binding to DS were assayed in Akata cells cultured with no treatment, with hydroxyurea, or with niacinamide. […] Future quantification of these preliminary results will be necessary to determine the significance of MCM3 and other MCM complex components interaction with OriP.

[10] = system: MCM3; test: MCM3 binding to DS in Akata cells; type: cell-based; conditions: preliminary results
Experimental: as §4

SMILES | long term maintenance of episomal plasmids [1] | OriP maintenance, dependence on nonamer binding sites [1] | stability of the EBV genome in cells [2] | transient replication of episomal plasmids [3] | TRF1 association with OriP [4] | OriP-associated S10 phosphorylation of histone H3 [5] | plasmid maintenance of OriP [1] | MCM3 binding to DS [10] | other results
NC(=O)c1cccc(N)c1 [3-AB, 3-aminobenzamide] | stabilize long term maintenance | enhanced plasmid maintenance was dependent upon the nonamer binding sites in OriP | enhanced the stability of the EBV genome | weakly inhibit transient replication |  |  |  |  | 
OO [H2O2, hydrogen peroxide] |  |  |  |  | TRF1 binding was reduced | inhibited H3 acetylation and S10 phosphorylation |  |  | OriP-associated histone H3 acetylation [5]: inhibited H3 acetylation
NC(=O)c1ccc[n+]([C@@H]2O[C@H](COP(=O)([O-])OP(=O)(O)OC[C@H]3O[C@@H](n4cnc5c(N)ncnc54)[C@H](O)[C@@H]3O)[C@@H](O)[C@H]2O)c1 [NAD] |  |  |  |  |  |  |  |  | association of EBNA1 with DS [6]: strong inhibit the association of EBNA1
NC(=O)NO [hydroxyurea] |  |  | decreased the stability of the EBV genome |  | reduced TRF1 association | inhibited S10 phosphorylation of histone H3 | decreased the maintenance of the OriP plasmid | decrease in EBNA1 and MCM3 association | EBNA1 association with OriP [7]: not EBNA1; hRap1 association with OriP [8]: not EBNA1 or hRap1; EBNA1 binding to DS [9]: decrease in EBNA1 and MCM3 association
NC(=O)c1cccnc1 [niacinamide] | stabilize long term maintenance | enhanced plasmid maintenance was dependent upon the nonamer binding sites in OriP | enhanced stability of the EBV genome | weakly inhibit transient replication |  |  | increased OriP maintenance | increased the MCM3 binding relative to EBNA1 | 
